Data on five compounds can be found in ChEMBL document CHEMBL3232938, “Design, synthesis, and biological evaluation of dihydroartemisinin-fluoroquinolone conjugates as a novel type of potential antitubercular agents” (2014).

What all share (assay type): functional
The test system of test [1] is Staphylococcus aureus. The experiment in a line: Antibacterial activity against Staphylococcus aureus assessed as growth inhibition after 7 days by microtiter plate assay. The conditions noted are these: 168 h.
The subject of test [2] is Salmonella. The test is described as follows: Antibacterial activity against Salmonella assessed as zone of inhibition at 2 ug/ml. The conditions noted are these: read-out: DIZ.
Test [3] relates to Pseudomonas aeruginosa. The experiment in a line: Antibacterial activity against Pseudomonas aeruginosa assessed as zone of inhibition at 2 ug/ml. The conditions noted are these: read-out: DIZ.
In test [4] the test system is Staphylococcus aureus. The test is described as follows: Antibacterial activity against Staphylococcus aureus assessed as zone of inhibition at 2 ug/ml. The conditions noted are these: read-out: DIZ.
In test [5] the test system is Escherichia coli. The test is described as follows: Antibacterial activity against duck Escherichia coli assessed as zone of inhibition at 2 ug/ml. The conditions noted are these: read-out: DIZ.
Test [6] deals with Mycobacterium tuberculosis. The test is described as follows: Antibacterial activity against Mycobacterium tuberculosis H37Rv ATCC 27294 assessed as growth inhibition after 7 days by microtiter plate assay. The conditions noted are these: H37Rv ATCC 27294, 168 h.
In test [7] the test system is Salmonella. The test is described as follows: Antibacterial activity against Salmonella assessed as growth inhibition after 7 days by microtiter plate assay. The conditions noted are these: 168 h.
The subject of test [8] is Pseudomonas aeruginosa. The test is described as follows: Antibacterial activity against Pseudomonas aeruginosa assessed as growth inhibition after 7 days by microtiter plate assay. The conditions noted are these: 168 h.
Test [9] concerns Escherichia coli. The test is described as follows: Antibacterial activity against Escherichia coli assessed as growth inhibition after 7 days by microtiter plate assay. The conditions noted are these: 168 h.
In test [10] the test system is Escherichia coli. The test is described as follows: Antibacterial activity against duck Escherichia coli assessed as growth inhibition after 7 days by microtiter plate assay. The conditions noted are these: 168 h.
Test [11] has as its system Escherichia coli. The test is described as follows: Antibacterial activity against Escherichia coli assessed as zone of inhibition at 2 ug/ml. The conditions noted are these: read-out: DIZ.
Test [12] deals with Mycobacterium tuberculosis. The experiment in a line: Antibacterial activity against drug-sensitive 1 ug/ml Mycobacterium tuberculosis clinical isolate 741 assessed as growth inhibition after 7 days by microtiter plate assay. The conditions noted are these: isolate 741, 168 h.
The subject of test [13] is Mycobacterium tuberculosis. The experiment in a line: Antibacterial activity against drug-sensitive 1 ug/ml Mycobacterium tuberculosis clinical isolate 753 assessed as growth inhibition after 7 days by microtiter plate assay. The conditions noted are these: isolate 753, 168 h.
In test [14] the test system is Mycobacterium tuberculosis. The experiment in a line: Antibacterial activity against drug-sensitive 1 ug/ml Mycobacterium tuberculosis clinical isolate 758 assessed as growth inhibition after 7 days by microtiter plate assay. The conditions noted are these: isolate 758, 168 h.
Test [15] has as its system Mycobacterium tuberculosis. The experiment in a line: Antibacterial activity against drug-sensitive 1 ug/ml Mycobacterium tuberculosis clinical isolate 760 assessed as growth inhibition after 7 days by microtiter plate assay. The conditions noted are these: isolate 760, 168 h.
The test system of test [16] is Mycobacterium tuberculosis. The test is described as follows: Antibacterial activity against drug-sensitive 1 ug/ml Mycobacterium tuberculosis clinical isolate 821 assessed as growth inhibition after 7 days by microtiter plate assay. The conditions noted are these: isolate 821, 168 h.

In brackets after ≈: the same amount, converted by molar mass.

`O=C(O)c1cn(C2CC2)c2cc(N3CCNCC3)c(F)cc2c1=O` [CIPROFLOXACIN]: the MIC with Staphylococcus aureus [1] came out at 8 µg/mL (≈ 24.1 µM); in test [6] it was 0.75 µM (≈ 0.249 µg/mL). Besides, the zone of inhibition at 2 µg/mL in the test on Salmonella [2] was determined as 24 mm; in the test on Pseudomonas aeruginosa [3], 18 mm; in the test with Staphylococcus aureus [4] it was 9 mm; in the test on Escherichia coli [5] it was 42 mm.

As for `CCn1cc(C(=O)O)c(=O)c2cc(F)c(N3CCNCC3)cc21` [NORFLOXACIN], the MIC in the test on Salmonella [7] stood at 16 µg/mL (≈ 50.1 µM); in the test with Pseudomonas aeruginosa [8] it was 2 µg/mL (≈ 6.26 µM); in the test on Staphylococcus aureus [1], 16 µg/mL (≈ 50.1 µM); in the test with Escherichia coli [9] it was 2 µg/mL (≈ 6.26 µM); in the test with Escherichia coli [10], 4 µg/mL (≈ 12.5 µM); in [6], 6.26 µM (≈ 2 µg/mL). The MIC amounted to 8 µg/mL (≈ 25.1 µM) in test [12]; 4 µg/mL (≈ 12.5 µM) in test [13]; 4 µg/mL (≈ 12.5 µM) in test [14]; 4 µg/mL (≈ 12.5 µM) in [15]; 4 µg/mL (≈ 12.5 µM) in test [16]. Also, the zone of inhibition at 2 µg/mL is 17 mm in the test on Salmonella [2]; 16 mm in the test with Pseudomonas aeruginosa [3]; under 5 mm in the test with Staphylococcus aureus [4]; 18 mm with Escherichia coli [11]; 33 mm in the test with Escherichia coli [5].

Turning to `NC1CCN(c2c(F)cc3c(=O)c(C(=O)O)cn(C4CC4)c3c2Cl)C1` (stereo not given) [CLINAFLOXACIN], the MIC with Salmonella [7] was 4 µg/mL (≈ 10.9 µM); in the test on Pseudomonas aeruginosa [8], 0.5 µg/mL (≈ 1.37 µM); in the test with Staphylococcus aureus [1] it was 2 µg/mL (≈ 5.47 µM); with Escherichia coli [9] it was 0.25 µg/mL (≈ 0.683 µM); with Escherichia coli [10], 4 µg/mL (≈ 10.9 µM); in test [6], 0.43 µM (≈ 0.157 µg/mL). The MIC in [12] is 1 µg/mL (≈ 2.73 µM); in test [13], 0.5 µg/mL (≈ 1.37 µM); in test [14], 0.25 µg/mL (≈ 0.683 µM); in [15], 0.25 µg/mL (≈ 0.683 µM); in [16], 1 µg/mL (≈ 2.73 µM). Moreover, the zone of inhibition at 2 µg/mL is 28 mm with Salmonella [2]; 32 mm in the test on Pseudomonas aeruginosa [3]; 21 mm in the test with Staphylococcus aureus [4]; 25 mm in the test on Escherichia coli [11]; 43 mm in the test on Escherichia coli [5].

For `C[C@H]1[C@@H](O)O[C@@H]2O[C@@]3(C)CC[C@H]4[C@H](C)CC[C@@H]1[C@@]24OO3` [ARTENIMOL], the MIC with Salmonella [7] is 16 µg/mL (≈ 56.3 µM); with Pseudomonas aeruginosa [8], 16 µg/mL (≈ 56.3 µM); with Staphylococcus aureus [1] it was 16 µg/mL (≈ 56.3 µM); with Escherichia coli [9], 16 µg/mL (≈ 56.3 µM); in the test on Escherichia coli [10] it was 4 µg/mL (≈ 14.1 µM); in test [6] it was over 56 µM. For the same compound, the MIC in test [12], in test [13], in test [14], in test [15] and in [16] was over 16 µg/mL in each case. Besides, the zone of inhibition at 2 µg/mL with Salmonella [2], with Pseudomonas aeruginosa [3], in the test on Staphylococcus aureus [4], with Escherichia coli [11] and with Escherichia coli [5] was under 5 mm throughout.

`O=C(O)c1cn(-c2ccc(F)cc2)c2cc(N3CCNCC3)c(F)cc2c1=O` [SARAFLOXACIN]: the MIC in the test with Salmonella [7] turned out to be 16 µg/mL (≈ 41.5 µM); in the test with Pseudomonas aeruginosa [8] it was 2 µg/mL (≈ 5.19 µM); in the test with Staphylococcus aureus [1], 16 µg/mL (≈ 41.5 µM); with Escherichia coli [9], 0.5 µg/mL (≈ 1.3 µM); in the test with Escherichia coli [10], 4 µg/mL (≈ 10.4 µM); in test [6], 5.19 µM (≈ 2 µg/mL). The MIC in test [12] stood at 16 µg/mL (≈ 41.5 µM); in [13], 8 µg/mL (≈ 20.8 µM); in [14], 8 µg/mL (≈ 20.8 µM); in [15], 8 µg/mL (≈ 20.8 µM); in test [16] it was 8 µg/mL (≈ 20.8 µM). For the same compound, the zone of inhibition at 2 µg/mL was 25 mm with Salmonella [2]; 20 mm in the test with Pseudomonas aeruginosa [3]; under 5 mm with Staphylococcus aureus [4]; 24 mm in the test on Escherichia coli [11]; 38 mm in the test on Escherichia coli [5].

The term MIC denotes the smallest concentration in the dilution series that meets the test's criterion for growth inhibition.
